Values joined by “and” are separate entries in the source; they are usually repeats but may differ in a detail not shown here. Equal entries are not always repeated.
Columns and labels:
Type in all cases: ADME, organism-based
[1] = (§1) Pharmacokinetic parameters for Levofloxacin evaluated after oral or IV single dose administration of 250, 500 or 750 mg Levofloxacin to male and/or female subjects of variable age ranges and health status.; set-up: dose 250 mg, dose 500 mg, dose 750 mg, route oral, route iv; conditions: human, in vivo
Homo sapiens [2] = test: as §1; set-up: dose 250 mg, dose 500 mg, dose 750 mg, route oral, route iv; conditions: in vivo
[3] = (§2) Pharmacokinetic parameters for Levofloxacin evaluated after multiple oral or IV administration of 250, 500 or 750 mg Levofloxacin, to male and/or female subjects of variable age ranges and health status.; set-up: dose 500 mg, dose 750 mg, dose 250 mg, route iv, route oral; conditions: human, in vivo; for CL renal: read-out: CL_renal
Homo sapiens [4] = test: as §2; set-up: dose 500 mg, dose 750 mg, dose 250 mg, route iv, route oral; conditions: in vivo

Question: With C[C@H]1COc2c(N3CCN(C)CC3)c(F)cc3c(=O)c(C(=O)O)cn1c23.C[C@H]1COc2c(N3CCN(C)CC3)c(F)cc3c(=O)c(C(=O)O)cn1c23.O [LEVOFLOXACIN] as the molecule, how does the Tmax ([1]; iv) read?
Answer: Its Tmax is 1 h.

Question: What about the half-life ([1]; iv) of the same molecule?
Answer: The half-life was 6.4 h.

Question: And the CL renal ([1]; iv, read-out: CL_renal)?
Answer: The CL renal was 112 mL/min.

Question: What about the Vd/F ([1]; po) of the same molecule?
Answer: The Vd/F was 112 L.

Question: And the CL/F (Homo sapiens [2]; iv)?
Answer: The CL/F was 175 mL/min and 126 mL/min.

Question: What about the Vd/F (Homo sapiens [2]; iv) of the same molecule?
Answer: Its Vd/F is 90 L and 75 L.

Question: And the t1/2 (Homo sapiens [2]; iv)?
Answer: The t1/2 was 7.5 h.

Question: What about the Vd/F (Homo sapiens [2]; po) of the same molecule?
Answer: Its Vd/F is 83 L and 89 L and 62 L and 67 L.

Question: What about the half-life ([3]; iv) of the same molecule?
Answer: The half-life was 7.9 h.

Question: And the CL renal ([3]; iv)?
Answer: Its CL renal is 99 mL/min.

Question: What about the CL/F ([3]; po) of the same molecule?
Answer: Its CL/F is 175 mL/min.

Question: What about the Tmax ([3]; po) of the same molecule?
Answer: Its Tmax is 1.4 h.

Question: What about the Vd/F ([3]; po) of the same molecule?
Answer: Its Vd/F is 102 L.

Question: And the half-life ([3]; po)?
Answer: The half-life was 8.8 h.

Question: What about the CL renal ([3]; po) of the same molecule?
Answer: The CL renal was 116 mL/min.

Question: And the AUC (Homo sapiens [4])?
Answer: Its AUC is 72.5 mcg.hr/mL [middle of 5 runs].

Question: What about the Cmax (Homo sapiens [4]) of the same molecule?
Answer: Its Cmax is 8.6 mcg/mL [middle of 5 runs].

Question: What about the CL/F (Homo sapiens [4]; iv) of the same molecule?
Answer: Its CL/F is 154 mL/min and 126 mL/min and 158 mL/min.

Question: What about the Vd/F (Homo sapiens [4]; iv) of the same molecule?
Answer: Its Vd/F is 111 L and 80 L and 91 L.

Question: What about the t1/2 (Homo sapiens [4]; iv) of the same molecule?
Answer: The t1/2 was 7 h.

Question: What about the CL/F (Homo sapiens [4]; po) of the same molecule?
Answer: Its CL/F is 143 mL/min.

Question: What about the Vd/F (Homo sapiens [4]; po) of the same molecule?
Answer: The Vd/F was 100 L.

From ChEMBL document CHEMBL3832078
